Assay results: patent US8415351B2 (priority 2007, dated 2013)

Legend:
[1] = system: genotype 1a-H77 subgenomic replicon cell line; assay: microbe, parasite or virus in culture; format: cell-based, HCV; details: Hepatitis C virus, read-out: EC50 1a
[2] = system: genotype 1b-Con1 subgenomic replicon cell line; assay: microbe, parasite or virus in culture; format: cell-based, HCV; details: Hepatitis C virus, read-out: EC50 1b

Structure (SMILES)	EC50 [1]	EC50 [2]
COc1c(/C=C/c2ccc(NS(C)(=O)=O)cc2)cc(-n2ccc(=O)[nH]c2=O)cc1C(C)(C)C [IB-L1-1.1, (E)-N-(4-(3-tert-butyl-5-(2,4-dioxo-3,4-dihydropyrimidin-1(2H)-yl)-2-methoxystyryl)phenyl)methanesulfonamide]	< 10 nM	< 10 nM
COc1c(/C=C/c2ccc(NS(C)(=O)=O)cc2C(=O)O)cc(-n2ccc(=O)[nH]c2=O)cc1C(C)(C)C [IB-L1-1.4, (E)-2-(3-tert-butyl-5-(2,4-dioxo-3,4-dihydropyrimidin-1(2H)-yl)-2-methoxystyryl)-5-(methylsulfonamido)benzoic acid]	10 to 100 nM	< 10 nM
COc1c(/C=C/c2ccc(NS(C)(=O)=O)c(F)c2)cc(-n2ccc(=O)[nH]c2=O)cc1C(C)(C)C [IB-L1-1.5, (E)-N-(4-(3-tert-butyl-5-(2,4-dioxo-3,4-dihydropyrimidin-1(2H)-yl)-2-methoxystyryl)-2-fluorophenyl)methanesulfonamide]	10 to 100 nM	< 10 nM
COc1c(/C=C/c2ccc(NS(C)(=O)=O)cc2C=O)cc(-n2ccc(=O)[nH]c2=O)cc1C(C)(C)C [IB-L1-1.6, N-(4-{(E)-2-[3-tert-Butyl-5-(2,4-dioxo-3,4-dihydro-2H-pyrimidin-1-yl)-2-methoxy-phenyl]-vinyl}-3-formyl-phenyl)-methanesulfonamide]	< 10 nM	< 10 nM
COC(=O)c1cc(NS(C)(=O)=O)ccc1/C=C/c1cc(-n2ccc(=O)[nH]c2=O)cc(C(C)(C)C)c1OC [IB-L1-1.7, (K)-methyl 2-(3-tert-butyl-5-(2,4-dioxo-3,4-dihydropyrimidin-1(2H)-yl)-2-methoxystyryl)-5-(methylsulfonamido)benzoate]	< 10 nM	< 10 nM
COc1c(/C=C/c2ccc(NS(C)(=O)=O)cc2C=NO)cc(-n2ccc(=O)[nH]c2=O)cc1C(C)(C)C [IB-L1-1.8, N-(4-{(E)-2-[3-tert-Butyl-5-(2,4-dioxo-3,4-dihydro-2H-pyrimidin-1-yl)-2-methoxy-phenyl]-vinyl}-3-(hydroxyimino-methyl)-phenyl)-methanesulfonamide]	10 to 100 nM	< 10 nM
COCCNC(=O)c1cc(NS(C)(=O)=O)ccc1/C=C/c1cc(-n2ccc(=O)[nH]c2=O)cc(C(C)(C)C)c1OC [IB-L1-1.9, 2-{(E)-2-[3-tert-Butyl-5-(2,4-dioxo-3,4-dihydro-2H-pyrimidin-1-yl)-2-methoxy-phenyl]-vinyl}-5-methanesulfonylamino-N-(2-methoxy-ethyl)-benzamide]	10 to 100 nM	< 10 nM
COc1c(/C=C/c2ccc(NS(C)(=O)=O)cc2CO)cc(-n2ccc(=O)[nH]c2=O)cc1C(C)(C)C [IB-L1-1.10, (E)-N-(4-(3-tert-butyl-5-(2,4-dioxo-3,4-dihydropyrimidin-1(2H)-yl)-2-methoxystyryl)-3-(hydroxymethyl)phenyl)methanesulfonamide]	< 10 nM	< 10 nM
CCOC(=O)c1cc(NS(C)(=O)=O)ccc1/C=C/c1cc(-n2ccc(=O)[nH]c2=O)cc(C(C)(C)C)c1OC [IB-L1-1.11, 2-{(E)-2-[3-tert-Butyl-5-(2,4-dioxo-3,4-dihydro-2H-pyrimidin-1-yl)-2-methoxy-phenyl]-vinyl}-5-methanesulfonylamino-benzoic acid ethyl ester]	10 to 100 nM	< 10 nM
CC(C)(C)c1cc(-n2ccc(=O)[nH]c2=O)cc(/C=C/c2ccc(NS(C)(=O)=O)cc2)c1Cl [IB-L1-1.12, N-(4-{(E)-2-[3-tert-Butyl-2-chloro-5-(2,4-dioxo-3,4-dihydro-2H-pyrimidin-1-yl)-phenyl]-vinyl}-phenyl)-methanesulfonamide]	10 to 100 nM	10 to 100 nM
COCc1cc(NS(C)(=O)=O)ccc1/C=C/c1cc(-n2ccc(=O)[nH]c2=O)cc(C(C)(C)C)c1OC [IB-L1-1.13, (E)-N-(4-(3-tert-butyl-5-(2,4-dioxo-3,4-dihydropyrimidin-1(2H)-yl)-2-methoxystyryl)-3-(methoxymethyl)phenyl)methanesulfonamide]	10 to 100 nM	< 10 nM
COc1c(/C=C/c2ccc(NS(C)(=O)=O)cc2C(=O)N(C)C)cc(-n2ccc(=O)[nH]c2=O)cc1C(C)(C)C [IB-L1-1.14, 2-{(E)-2-[3-tert-Butyl-5-(2,4-dioxo-3,4-dihydro-2H-pyrimidin-1-yl)-2-methoxy-phenyl]-vinyl}-5-methanesulfonylamino-N,N-dimethyl-benzamide]	10 to 100 nM	< 10 nM
COc1c(/C=C/c2cc(F)c(NS(C)(=O)=O)cc2C)cc(-n2ccc(=O)[nH]c2=O)cc1C(C)(C)C [IB-L1-1.15, (E)-N-(4-(3-tert-butyl-5-(2,4-dioxo-3,4-dihydropyrimidin-1 (2H)-yl)-2-methoxystyryl)-2-fluoro-5-methylphenyl)methanesulfonamide]	< 10 nM	< 10 nM
COc1c(/C=C/c2ccc(NS(C)(=O)=O)cc2-c2ncc[nH]2)cc(-n2ccc(=O)[nH]c2=O)cc1C(C)(C)C [IB-L1-1.16, (E)-N-(4-(3-tert-butyl-5-(2,4-dioxo-3,4-dihydropyrimidin-1(2H)-yl)-2-methoxystyryl)-3-(1H-imidazol-2-yl)phenyl)methanesulfonamide]	100 to 1000 nM	10 to 100 nM
CNC(=O)c1cc(NS(C)(=O)=O)ccc1/C=C/c1cc(-n2ccc(=O)[nH]c2=O)cc(C(C)(C)C)c1OC [IB-L1-1.17, 2-{(E)-2-[3-tert-butyl-5-(2,4-dioxo-3,4-dihydro-2H-pyrimidin-1-yl)-2-methoxy-phenyl]-vinyl}-5-methanesulfonylamino-N-methyl-benzamide]	10 to 100 nM	< 10 nM
COc1c(/C=C/c2ccc(NS(C)(=O)=O)cc2C(=O)N(C)C2CCS(=O)(=O)C2)cc(-n2ccc(=O)[nH]c2=O)cc1C(C)(C)C (stereo not drawn) [IB-L1-1.18, 2-{(E)-2-[3-tert-butyl-5-(2,4-dioxo-3,4-dihydro-2H-pyrimidin-1-yl)-2-methoxy-phenyl]-vinyl}-N-(1,1-dioxo-tetrahydro-1lambda*6*-thiophen-3-yl)-5-methanesulfonylamino-N-methyl-benzamide]	10 to 100 nM	10 to 100 nM
CO/N=C/c1cc(NS(C)(=O)=O)ccc1/C=C/c1cc(-n2ccc(=O)[nH]c2=O)cc(C(C)(C)C)c1OC [IB-L1-1.19]	10 to 100 nM	< 10 nM
COc1c(/C=C/c2ccc(NS(C)(=O)=O)cc2)cc(-n2cc(Cl)c(=O)[nH]c2=O)cc1C(C)(C)C [IB-L1-1.20, N-(4-{(E)-2-[3-tert-butyl-5-(5-chloro-2,4-dioxo-3,4-dihydro-2H-pyrimidin-1-yl)-2-methoxy-phenyl]-vinyl}-phenyl)-methanesulfonamide]	10 to 100 nM	< 10 nM
COc1c(/C=C/c2ccc(NS(C)(=O)=O)cc2C(N)=O)cc(-n2ccc(=O)[nH]c2=O)cc1C(C)(C)C [IB-L1-1.21, 2-{(E)-2-[3-tert-butyl-5-(2,4-dioxo-3,4-dihydro-2H-pyrimidin-1-yl)-2-methoxy-phenyl]-vinyl}-5-methanesulfonylamino-benzamide]	10 to 100 nM	< 10 nM
COc1c(/C=C/c2ccc(NS(C)(=O)=O)cc2C(=O)N2CCC2)cc(-n2ccc(=O)[nH]c2=O)cc1C(C)(C)C [IB-L1-1.22, N-(3-(azetidine-1-carbonyl)-4-{(E)-2-[3-tert-butyl-5-(2,4-dioxo-3,4-dihydro-2H-pyrimidin-1-yl)-2-methoxy-phenyl]-vinyl}-phenyl)-methanesulfonamide]	10 to 100 nM	< 10 nM
COc1c(/C=C/c2ccc(NS(C)(=O)=O)cc2C(=O)N2CCOCC2)cc(-n2ccc(=O)[nH]c2=O)cc1C(C)(C)C [IB-L1-1.23, (E)-N-(4-(3-tert-butyl-5-(2,4-dioxo-3,4-dihydropyrimidin-1(2H)-yl)-2-methoxystyryl)-3-(morpholine-4-carbonyl)phenyl)methanesulfonamide]	100 to 1000 nM	< 10 nM
COCCN(C)C(=O)c1cc(NS(C)(=O)=O)ccc1/C=C/c1cc(-n2ccc(=O)[nH]c2=O)cc(C(C)(C)C)c1OC [IB-L1-1.24, 2-{(E)-2-[3-tert-butyl-5-(2,4-dioxo-3,4-dihydro-2H-pyrimidin-1-yl)-2-methoxy-phenyl]-vinyl}-5-methanesulfonylamino-N-(2-methoxy-ethyl)-N-methyl-benzamide]	10 to 100 nM	< 10 nM
COc1c(/C=C/c2ccc(NS(C)(=O)=O)cc2COC(C)C)cc(-n2ccc(=O)[nH]c2=O)cc1C(C)(C)C [IB-L1-1.25, N-(4-{(E)-2-[3-tert-butyl-5-(2,4-dioxo-3,4-dihydro-2H-pyrimidin-1-yl)-2-methoxy-phenyl]-vinyl}-3-isopropoxymethyl-phenyl)-methanesulfonamide]	10 to 100 nM	< 10 nM
COc1c(/C=C/c2ccc(NS(C)(=O)=O)cc2-c2ncco2)cc(-n2ccc(=O)[nH]c2=O)cc1C(C)(C)C [IB-L1-1.26, (E)-N-(4-(3-tert-butyl-5-(2,4-dioxo-3,4-dihydropyrimidin-1(2H)-yl)-2-methoxystyryl)-3-(oxazol-2-yl)phenyl)methanesulfonamide]	10 to 100 nM	< 10 nM
COc1c(/C=C/c2ccc(NS(C)(=O)=O)cc2C(=O)N2CCCC2)cc(-n2ccc(=O)[nH]c2=O)cc1C(C)(C)C [IB-L1-1.27, N-[4-{(E)-2-[3-tert-butyl-5-(2,4-dioxo-3,4-dihydro-2H-pyrimidin-1-yl)-2-methoxy-phenyl]-vinyl}-3-(pyrrolidine-1-carbonyl)-phenyl]-methanesulfonamide]	10 to 100 nM	< 10 nM
COc1c(/C=C/c2ccc(NS(C)(=O)=O)cc2N)cc(-n2ccc(=O)[nH]c2=O)cc1C(C)(C)C [IB-L1-1.28, (E)-N-(3-amino-4-(3-tert-butyl-5-(2,4-dioxo-3,4-dihydropyrimidin-1(2H)-yl)-2-methoxystyryl)phenyl)methanesulfonamide]	< 10 nM	< 10 nM
COc1c(/C=C/c2ccc(NS(C)(=O)=O)cc2CN2CC(O)C2)cc(-n2ccc(=O)[nH]c2=O)cc1C(C)(C)C [IB-L1-1.29, N-[4-{(E)-2-[3-tert-butyl-5-(2,4-dioxo-3,4-dihydro-2H-pyrimidin-1-yl)-2-methoxy-phenyl]-vinyl}-3-(3-hydroxy-azetidin-1-ylmethyl)-phenyl]-methanesulfonamide]	100 to 1000 nM	100 to 1000 nM
